Assay results reported in patent publication US8895571B2, “Isoindolinone and pyrrolopyridinone derivatives as Akt inhibitors” (Incyte Corporation, priority 2011, dated 2014).

How the values were obtained:
Full length Akt1 = biological target: T1, Full length Akt1 (Homo sapiens, UniProt P31749); test: In vitro Akt kinase enzymatic assay (HTRF), Akt1; assay type: biochemical; conditions: 0.4 nM Akt1, substrate solution with 5 mM ATP, 25° C. 1 hr
T1 construct: Full length Akt1 (cat #P2999); purchased PerkinElmer P2999
Method: (§1) Compounds herein were tested for inhibitory activity of Akt targets according to the following in vitro assay. Full length Akt1 (cat #P2999), Akt2 (cat #PV3184), Akt3 (cat #PV3185), peptide substrate, Ulight-Crosstide (cat #TRF0106-M), Ultra-Europium anti-phospho-Crosstide (cat #TRF-0202-M), and 10×LANCE detection buffer (cat #CR97-100) were purchased from PerkinElmer. In general, assay buffer conditions were chosen based on obtaining optimal enzymatic and linear activities. The assay buffer contains 50 mM HEPES, 10 mM MgCl2, 5 mM DTT, 0.005% Tween20 at pH 7.8. Compound stock (0.001 mM) was prepared in DMSO. The compound plate was prepared by 3-fold and 11-point serial dilutions. 0.5 μL of the compound in DMSO was transferred from the compound plate to the assay plate. Enzyme solution (0.4 nM of Akt1, 0.6 nM of Akt2 or 0.6 nM of Akt3) was prepared in the assay buffer. Note that the enzyme concentration given is based on the given stock concentration reported by the vendor. 0.1 μM substrate solution was prepared in the assay buffer with addition of 5 mM ATP. 10 μL of the enzyme solution was added to the assay plate and then 10 μL of substrate solution was added to the assay plate. The plate was protected from light and the reaction was incubated at 25° C. for 1 hr. The reaction was stopped by adding 10 μL of a solution containing 30 mM EDTA, and 3 nM Ultra Europium anti-phospho Crosstide in 1× detection buffer. The plate was incubated for 15-30 min at room temperature and HTRF (homogenous time resolved fluorescence) was measured on a plate reader. Percentage of inhibition was calculated for each concentration and IC50 value was generated from curve fitting. See Table 8 for data related to compounds of the examples.

Full length Akt2 = biological target: T2, Full length Akt2 (Homo sapiens, UniProt P31751); test: In vitro Akt kinase enzymatic assay (HTRF), Akt2; assay type: biochemical; conditions: 0.6 nM Akt2, substrate solution with 5 mM ATP, 25° C. 1 hr
T2 construct: Full length Akt1 (cat #P2999), Akt2 (cat #PV3184); purchased PerkinElmer PV3184
Method: as §1

Full length Akt3 = biological target: T3, Full length Akt3 (Homo sapiens, UniProt Q9Y243); test: In vitro Akt kinase enzymatic assay (HTRF), Akt3; assay type: biochemical; conditions: 0.6 nM Akt3, substrate solution with 5 mM ATP, 25° C. 1 hr
T3 construct: Full length Akt1 (cat #P2999), Akt2 (cat #PV3184), Akt3 (cat #PV3185); purchased PerkinElmer PV3185
Method: as §1

Full length PKA = biological target: T4, Full length PKA (Homo sapiens, UniProt P17612); test: PKA in vitro enzymatic assay (HTRF); assay type: biochemical; conditions: 0.035 nM enzyme solution, substrate solution with 5 mM ATP, 25° C. 1 hr
T4 construct: Full length PKA (cat #P2912); purchased Invitrogen P2912
Method: Full length PKA (cat #P2912), peptide substrate, fluorescein CREBtide peptide (cat #PV3508), Tb-Crebtide p-S133 Ab (cat #PV3566), and Lanthascreen TR-FRET Dilution Buffer stored (part # PV3574) were purchased from Invitrogen. In general, assay buffer conditions were chosen based on obtaining optimal and linear enzymatic activities. The assay buffer contains 50 mM HEPES, 10 mM MgCl2, 5 mM DTT, 0.005% Tween20 at pH 7.8. Compound stock (0.001 mM) was prepared in DMSO. The compound plate was prepared by 3-fold and 11-point serial dilutions. 0.5 μL of the compound in DMSO was transferred from the compound plate to the assay plate. 0.035 nM enzyme solution was prepared in the assay buffer. Note that the enzyme concentration given is based on the given stock concentration reported by the vendor. 0.1 μM substrate solution was prepared in the assay buffer with addition of 5 mM ATP. 10 μL of the enzyme solution was added to the assay plate and then 10 μL of substrate solution was added to the assay plate. The plate was protected from light and the reaction was incubated at 25° C. for 1 hr. The reaction was stopped by adding 10 μL of a solution containing 30 mM EDTA, and 1.5 nM Tb-Crebtide p-S133 Ab in 1× detection buffer. The plate was incubated for 15-30 min at room temperature and HTRF (homogenous time resolved fluorescence) was measured on a plate reader. Percentage of inhibition was calculated for each concentration and IC50 value was generated from curve fitting. See Table 8 for data related to compounds of the examples.

[1] = tested on: LNCaP cells (human prostate tumor cell line); test: Akt LNCaP proliferation assay (MTS); assay type: cell-based; conditions: 2% fetal bovine serum, 48 hours, class symbols
Method: LNCaP cells (human prostate tumor cell line) were plated in 96 well plates (COSTAR, Corning, N.Y.) in 50 μL at 10,000 cells/well in RPMI (Media Tech, Manassas, Va.), 2% fetal bovine serum (Hyclone/Thermo, Logan, Utah) and incubated overnight at 37° C., 5% CO2. […] of compound solution were added at final concentrations of 1000 nM to 0.5 nM in 3 fold dilutions for IC50 determination and plates further incubated for 48 hours. 100 μL of Cell Titer 96® Aqueous reagent, from an MTS colorimetric method for determining the number of viable cells in proliferation (Cell titer 96, Promega, Madison, Wis.) was added for 2 hours at 37° C., 5% CO2. Each plate was mixed well and read on a SpectroMax M5 automated plate reader (Molecular Devices, Sunnyvale Calif.). The ability of the compound to inhibit proliferation was reported as the inhibitor concentration required for 50% inhibition (IC50 values) of total cell proliferation. See Table 8 for data related to compounds of the examples.

T3 sequence (Q9Y243 whole entry): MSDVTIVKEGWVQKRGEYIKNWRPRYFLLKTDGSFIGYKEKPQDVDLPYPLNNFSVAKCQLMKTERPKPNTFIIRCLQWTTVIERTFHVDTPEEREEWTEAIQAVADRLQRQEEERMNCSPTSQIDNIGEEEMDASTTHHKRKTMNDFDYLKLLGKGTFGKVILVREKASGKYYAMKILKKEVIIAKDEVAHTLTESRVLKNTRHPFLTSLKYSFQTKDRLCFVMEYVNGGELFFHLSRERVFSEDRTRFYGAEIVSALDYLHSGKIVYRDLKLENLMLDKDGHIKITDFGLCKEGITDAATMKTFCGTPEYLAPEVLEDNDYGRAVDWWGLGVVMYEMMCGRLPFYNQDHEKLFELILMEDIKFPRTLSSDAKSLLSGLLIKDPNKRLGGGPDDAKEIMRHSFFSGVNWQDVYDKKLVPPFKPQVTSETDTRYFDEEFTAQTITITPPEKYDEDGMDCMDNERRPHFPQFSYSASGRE
T1 sequence (P31749 whole entry): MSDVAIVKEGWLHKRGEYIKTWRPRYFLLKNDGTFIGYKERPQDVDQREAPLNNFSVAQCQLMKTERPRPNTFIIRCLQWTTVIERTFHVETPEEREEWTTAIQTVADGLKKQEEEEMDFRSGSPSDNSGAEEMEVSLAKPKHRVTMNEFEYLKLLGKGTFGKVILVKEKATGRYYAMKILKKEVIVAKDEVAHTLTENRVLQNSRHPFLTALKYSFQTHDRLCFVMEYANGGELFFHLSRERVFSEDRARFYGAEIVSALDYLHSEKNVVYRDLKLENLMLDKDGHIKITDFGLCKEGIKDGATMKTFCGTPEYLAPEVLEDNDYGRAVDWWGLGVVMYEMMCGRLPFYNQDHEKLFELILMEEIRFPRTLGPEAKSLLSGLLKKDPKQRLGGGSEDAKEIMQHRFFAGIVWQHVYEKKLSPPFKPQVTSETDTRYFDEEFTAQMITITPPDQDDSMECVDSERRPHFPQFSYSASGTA
T2 sequence (P31751 whole entry): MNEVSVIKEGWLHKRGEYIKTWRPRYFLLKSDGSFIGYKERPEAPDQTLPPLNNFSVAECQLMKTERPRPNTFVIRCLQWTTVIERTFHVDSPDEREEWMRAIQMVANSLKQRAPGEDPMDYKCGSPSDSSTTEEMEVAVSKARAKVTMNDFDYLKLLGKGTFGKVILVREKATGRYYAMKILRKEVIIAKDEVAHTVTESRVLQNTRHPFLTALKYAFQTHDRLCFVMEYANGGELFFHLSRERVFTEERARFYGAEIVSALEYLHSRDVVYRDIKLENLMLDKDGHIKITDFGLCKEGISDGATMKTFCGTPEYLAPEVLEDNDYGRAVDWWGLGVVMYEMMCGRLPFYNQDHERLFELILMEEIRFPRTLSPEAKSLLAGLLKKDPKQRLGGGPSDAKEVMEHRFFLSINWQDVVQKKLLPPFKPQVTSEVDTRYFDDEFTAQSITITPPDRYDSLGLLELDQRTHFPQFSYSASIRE

IC50 (Full length Akt1) [µM] | IC50 (Full length Akt2) [µM] | IC50 (Full length Akt3) [µM] | IC50 (Full length PKA) [µM] | IC50 [1] [µM] | SMILES
< 0.5 | < 0.5 | < 0.5 | > 5 | < 0.5 | Cn1ncc(Cl)c1-c1ccc2c(c1)CN([C@H](CN)Cc1ccccc1F)C2=O (stereo in doubt) [Example 60, 2-[2-amino-1-(2-fluorobenzyl)ethyl]-5-(4-chloro-1-methyl-1H-pyrazol-5-yl)isoindolin-1-one]
< 0.5 | < 0.5 | < 0.5 | 0.5 to 5 | 0.5 to 5 | Cn1ncc(Cl)c1-c1ccc2c(c1)CN([C@H](CN)Cc1cccc(C(F)(F)F)c1)C2=O (stereo in doubt) [Example 61, 2-{2-amino-1-[3-(trifluoromethyl)benzyl]ethyl}-5-(4-chloro-1-methyl-1H-pyrazol-5-yl)isoindolin-1-one]
< 0.5 | 0.5 to 5 | 0.5 to 5 | > 5 |  | Cn1ncc(Cl)c1-c1ccc2c(n1)CN([C@H](CN)Cc1cccc(F)c1)C2=O [Example 109, 6-[(1S)-2-amino-1-(3-fluorobenzyl)ethyl]-2-(4-chloro-1-methyl-1H-pyrazol-5-yl)-6,7-dihydro-5H-pyrrolo[3,4-b]pyridin-5-one]
< 0.5 | 0.5 to 5 | 0.5 to 5 | > 5 |  | Cn1nccc1-c1ccc2c(n1)CN([C@H](CN)Cc1cccc(F)c1)C2=O [Example 110, 6-[(1S)-2-amino-1-(3-fluorobenzyl)ethyl]-2-(1-methyl-1H-pyrazol-5-yl)-6,7-dihydro-5H-pyrrolo[3,4-b]pyridin-5-one]
0.5 to 5 | 0.5 to 5 | > 5 | > 5 |  | Cn1nccc1-c1ccc2c(n1)CN([C@H](CN)Cc1ccccc1)C2=O [Example 111, 6-[(1S)-2-amino-1-benzylethyl]-2-(1-methyl-1H-pyrazol-5-yl)-6,7-dihydro-5H-pyrrolo[3,4-b]pyridin-5-one]
0.5 to 5 | 0.5 to 5 | 0.5 to 5 | > 5 |  | Cn1ncc(Cl)c1-c1ccc2c(n1)CN([C@H](CN)Cc1ccccc1)C2=O [Example 112, 6-[(1S)-2-amino-1-benzylethyl]-2-(4-chloro-1-methyl-1H-pyrazol-5-yl)-6,7-dihydro-5H-pyrrolo[3,4-b]pyridin-5-one]
< 0.5 | 0.5 to 5 | 0.5 to 5 | > 5 |  | Cn1ncc(Cl)c1-c1ncc2c(n1)CN([C@H](CN)Cc1ccccc1)C2=O [Example 113, 6-[(1S)-2-amino-1-benzyl-ethyl]-2-(4-chloro-1-methyl-1H-pyrazol-5-yl)-6,7-dihydro-5H-pyrrolo[3,4-d]pyrimidin-5-one]
0.5 to 5 | > 5 | > 5 | > 5 |  | CN(C)CC(c1ccccc1)N1Cc2cc(-c3ccnn3C)ccc2C1=O (stereo not drawn) [Example 115]
< 0.5 | 0.5 to 5 | > 5 | > 5 |  | Cn1nccc1-c1ccc2c(c1)CN(C(CN)c1ccc(F)cc1)C2=O (stereo not drawn) [Example 118, 2-[2-amino-1-(4-fluorophenyl)ethyl]-5-(1-methyl-1H-pyrazol-5-yl)isoindolin-1-one]
< 0.5 | < 0.5 | 0.5 to 5 | 0.5 to 5 |  | COc1cccc(C(CN)N2Cc3cc(-c4ccnn4C)ccc3C2=O)c1 (stereo not drawn) [Example 119, 2-[2-amino-1-(3-methoxyphenyl)ethyl]-5-(1-methyl-1H-pyrazol-5-yl)isoindolin-1-one]
> 5 | > 5 | > 5 | > 5 |  | COc1ccc(C(CN)N2Cc3cc(-c4ccnn4C)ccc3C2=O)cc1 (stereo not drawn) [Example 120, 2-[2-amino-1-(4-methoxyphenyl)ethyl]-5-(1-methyl-1H-pyrazol-5-yl)isoindolin-1-one]
> 5 | > 5 | > 5 | > 5 |  | CN(C)CC(c1ccccc1)N1Cc2cc(-c3c(Cl)cnn3C)ccc2C1=O (stereo not drawn) [Example 121, 5-(4-chloro-1-methyl-1H-pyrazol-5-yl)-2-[2-(dimethyl-amino)-1-phenylethyl]iso-indolin-1-one]
< 0.5 | 0.5 to 5 | 0.5 to 5 | > 5 |  | CC(C)OCc1cnn(C)c1-c1ccc2c(c1)CN([C@@H](CN)c1ccccc1)C2=O [Example 122, 2-[(1R)-2-amino-1-phenylethyl]-5-[4-(2-propoxymethyl)-1-methyl-1H-pyrazol-5-yl]iso-indolin-1-one]
< 0.5 | 0.5 to 5 | 0.5 to 5 | 0.5 to 5 |  | Cn1ncc(Cl)c1-c1ccc2c(c1)CN(C(CN)c1cccc(F)c1)C2=O (stereo not drawn) [Example 123, 2-[2-amino-1-(3-fluorophenyl)ethyl]-5-(4-chloro-1-methyl-1H-pyrazol-5-yl)isoindolin-1-one]
0.5 to 5 | 0.5 to 5 | 0.5 to 5 | > 5 |  | Cn1ncc(Cl)c1-c1ccc2c(c1)CN(C(CN)c1ccc(F)cc1)C2=O (stereo not drawn) [Example 124, 2-[2-amino-1-(4-fluorophenyl)ethyl]-5-(4-chloro-1-methyl-1H-pyrazol-5-yl)isoindolin-1-one]
< 0.5 | 0.5 to 5 | 0.5 to 5 | > 5 |  | COc1cccc(C(CN)N2Cc3cc(-c4c(Cl)cnn4C)ccc3C2=O)c1 (stereo not drawn) [Example 125, 2-[2-amino-1-(3-methoxyphenyl)ethyl]-5-(4-chloro-1-methyl-1H-pyrazol-5-yl)isoindolin-1-one]
> 5 | > 5 | > 5 | > 5 |  | COc1ccc(C(CN)N2Cc3cc(-c4c(Cl)cnn4C)ccc3C2=O)cc1 (stereo not drawn) [Example 126, 2-[2-amino-1-(4-methoxyphenyl)ethyl]-5-(4-chloro-1-methyl-1H-pyrazol-5-yl)isoindolin-1-one]
< 0.5 | 0.5 to 5 | > 5 | > 5 |  | Cn1nccc1-c1ccc2c(c1)CN([C@H](CN)CC1CC1)C2=O [Example 136, 2-[(1S)-2-amino-1-(cyclopropylmethyl)ethyl]-5-(1-methyl-1H-pyrazol-5-yl)isoindolin-1-one]
0.5 to 5 | 0.5 to 5 | 0.5 to 5 | > 5 |  | Cn1ncc(Cl)c1-c1ccc2c(c1)CN([C@H](CN)CC1CC1)C2=O [Example 137, 2-[(1S)-2-amino-1-(cyclopropylmethyl)ethyl]-5-(4-chloro-1-methyl-1H-pyrazol-5-yl)isoindolin-1-one]
